# In EP4603105A1, “PHARMACEUTICAL COMPOSITION CONTAINING CYCLIC COMPOUND HAVING SELECTIVE KRAS INHIBITORY EFFECT AGAINST HRAS AND NRAS” (CHUGAI SEIYAKU KABUSHIKI KAISHA, priority 2022, dated 2024):
# Columns and labels:
# [1] = system: human colorectal cancer strain GP2d; type: cell-based
# Protocol: (§1) A test compound was dispensed into a U-bottom 384-well plate as 40 nL serially diluted dimethyl sulfoxide solutions using a liquid handler Echo (LABCYTE). As for human colorectal cancer strain GP2d (ECACC), a cell suspension was prepared so as to have 500 cells/40 µL in a Dulbecco's modified Eagle medium supplemented with 10% fetal bovine serum (Sigma). This cell suspension was dispensed in an amount of 40 µL per well into a plate containing the test compound, and cultured at 37°C in a 5% carbon dioxide gas incubator. Seven days later, 20 µL of CellTiter-Glo (registered trademark) (Promega) was added to each well and luminescence was measured.
# [2] = molecular target: GDP-bound NRAS wild-type protein (Homo sapiens, UniProt P01111); experiment: Binding to NRAS by surface plasmon resonance (SPR), KD and KD ratio to KRAS; conditions: ratio of KD for GDP-bound NRAS wild-type protein to KD for KRAS
# In short: (§2)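 Single-cycle kinetics on GDP-loaded biotin-Avi RAS captured to ~100–300 RU; 75 s ascending injections, 100 µL/min, 30°C. HBS pH 7.4 + 10 mM MgCl2/10 µM GDP/4% DMSO. 1:1 fit, KD.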
# [3] = system: human pancreatic cancer strain KP4; type: cell-based
# Protocol: as §1, with “pancreatic” for “colorectal”, “KP4 (Institute of Physical and Chemical Research),” for “GP2d (ECACC),”, “DMEM/Ham's F-12” for “Dulbecco's modified Eagle”, “medium (Nacalai Tesque)” for “medium”
# [4] = system: human gastric cancer strain SNU-1; type: cell-based
# Protocol: as §1, with “gastric” for “colorectal”, “SNU-1 (ATCC),” for “GP2d (ECACC),”, “250” for “500”, “an RPMI-1640” for “a Dulbecco's modified Eagle”, “medium (Sigma)” for “medium”, “(Sigma), a 2.5 g/L D-(+)-glucose solution, 10 mmol/L HEPES, and 1 mmol/L sodium pyruvate.” for “(Sigma).”
# [5] = molecular target: GDP-bound KRAS wild-type protein (Homo sapiens, UniProt P01116); experiment: Binding to KRAS by surface plasmon resonance (SPR), dissociation constant KD
# In short: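 Measured at 30°C: SPR with GDP-loaded, E. coli-expressed biotin-Avi RAS captured (~100–300 RU), ascending 75 s compound injections, HBS pH 7.4 with GDP, MgCl2, 4% DMSO. KD from 1:1 fit.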
# [6] = system: human gastric cancer strain GSU; type: cell-based
# Protocol: as §1, with “gastric” for “colorectal”, “GSU (Institute of Physical and Chemical Research),” for “GP2d (ECACC),”, “200” for “500”, “an RPMI-1640” for “a Dulbecco's modified Eagle”, “medium (Sigma)” for “medium”
# HRAS wild-type protein = HRAS wild-type protein (Homo sapiens, UniProt P01112); experiment: Binding to HRAS by surface plasmon resonance (SPR), KD and KD ratio to KRAS; conditions: ratio of KD for HRAS wild-type protein to KD for KRAS
# In short: as §2
# [7] = system: human lung cancer strain NCI-H441; type: cell-based
# In short: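 Proliferation was scored by […] measured after the reagent was added to cultures kept at 37°C in 5% carbon dioxide.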
# [8] = system: human ovarian cancer strain OV7; type: cell-based
# Protocol: A test compound was dispensed into a U-bottom 384-well plate as 40 nL serially diluted dimethyl sulfoxide solutions using a liquid handler Echo (LABCYTE). As for human ovarian cancer strain OV7 (ECACC), a cell suspension was prepared so as to have 250 cells/40 µL in a DMEM/Ham's F-12 medium (Nacalai Tesque) supplemented with 5% fetal bovine serum (Sigma), 0.5 µg/mL hydrocortisone, and 10 µg/mL insulin. This cell suspension was dispensed in an amount of 40 µL per well into a plate containing the test compound, and cultured at 37°C in a 5% carbon dioxide gas incubator. Seven days later, 20 µL of CellTiter-Glo (registered trademark) (Promega) was added to each well and luminescence was measured.
# [9] = system: human bladder cancer strain UM-UC-3; type: cell-based
# Protocol: A test compound was dispensed into a U-bottom 384-well plate as 40 nL serially diluted dimethyl sulfoxide solutions using a liquid handler Echo (LABCYTE). As for human bladder cancer strain UM-UC-3 (ATCC), a cell suspension was prepared so as to have 250 cells/40 µL in an MEM medium (Nacalai Tesque) supplemented with 10% fetal bovine serum (Sigma), an MEM non-essential amino acids solution (100X), and 1 mmol/L sodium pyruvate. This cell suspension was dispensed in an amount of 40 µL per well into a plate containing the test compound, and cultured at 37°C in a 5% carbon dioxide gas incubator. Seven days later, 20 µL of CellTiter-Glo (registered trademark) (Promega) was added to each well and luminescence was measured. […]
# Chain of GDP-bound NRAS wild-type protein (P01111 whole entry): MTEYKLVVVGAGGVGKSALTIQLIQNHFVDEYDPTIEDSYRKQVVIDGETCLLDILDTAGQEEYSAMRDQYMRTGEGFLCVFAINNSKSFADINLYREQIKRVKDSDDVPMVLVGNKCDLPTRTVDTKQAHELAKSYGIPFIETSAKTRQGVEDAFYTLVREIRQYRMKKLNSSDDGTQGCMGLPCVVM
# Chain of HRAS wild-type protein (P01112 whole entry): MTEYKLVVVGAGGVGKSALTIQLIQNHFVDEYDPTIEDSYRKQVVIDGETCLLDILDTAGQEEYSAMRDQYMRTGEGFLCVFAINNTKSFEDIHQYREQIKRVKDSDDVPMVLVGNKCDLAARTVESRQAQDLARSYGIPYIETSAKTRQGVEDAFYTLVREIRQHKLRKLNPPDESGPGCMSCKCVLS
# Chain of GDP-bound KRAS wild-type protein (P01116 1-188 isoform P01116-2): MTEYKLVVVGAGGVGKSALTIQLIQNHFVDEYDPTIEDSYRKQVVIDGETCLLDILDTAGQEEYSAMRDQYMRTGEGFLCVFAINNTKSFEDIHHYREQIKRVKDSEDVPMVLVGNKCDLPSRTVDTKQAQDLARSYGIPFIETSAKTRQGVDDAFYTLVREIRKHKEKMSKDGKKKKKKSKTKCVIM
IC50 [1],IC50 [3],IC50 [4],Kd ([5]; 1:1 binding model),IC50 [6],IC50 [7],IC50 [8],IC50 [9],Kd ([5]; Single Cycle Kinetics),SMILES,NRAS /KRAS [2],HRAS /KRAS (HRAS wild-type protein)
2.8 nM,6.8 nM,2.5 nM,0.041 nM,0.6 nM,2.9 nM,7.7 nM,2.7 nM,–,"CCO[C@@H]1C[C@H]2C(=O)NC3(CC(C)(C)C3)C(=O)N(C)[C@@H](C3CCCC3)C(=O)N(C)[C@H](C(=O)N(C)C)CC(=O)N(C)[C@@H]([C@@H](C)OC)C(=O)N[C@@H]([C@@H](C)CC)C(=O)N(C)CC(=O)N(C)[C@H]3C/C=C\CCN(C3=O)[C@@H](Cc3ccc(C(F)(F)F)cc3)C(=O)N(C)CC(=O)N[C@@H](CCc3ccc(C(F)(F)F)c(OC)c3)C(=O)N2C1 [PP3194, (2S,8S,12R,14S,20S,23S,27S,30S,36S,38Z)-20-cyclopentyl-12-ethoxy-27-[(1R)-1-methoxyethyl]-8-[2-[3-methoxy-4-(trifluoromethyl)phenyl]ethyl]-N,N,3',3',4,19,22,26,32,35-decamethyl-30-[(1S)-1-methylpropyl]-3,6,9,15,18,21,25,28,31,34,42-undecaoxo-2-[[4-(trifluoromethyl)phenyl]methyl]spiro[1,4,7,10,16,19,22,26,29,32,35-undecazatricyclo[34.5.1.0^10,14]dotetracont-38-ene-17,1'-cyclobutane]-23-carboxamide]",A (a compound having 10 or more and less than 20 is denoted as A),A (a compound having 10 or more and less than 20 is denoted as A)
1.8 nM,1.9 nM,3.1 nM,–,0.6 nM,2.2 nM,4.1 nM,0.9 nM,0.027 nM,"CCO[C@@H]1C[C@H]2C(=O)N(C)C3(CCC3)C(=O)N(C)[C@@H](C3CCCC3)C(=O)N(C)[C@H](C(=O)N(C)C)CC(=O)N(C)[C@@H](CC(C)C)C(=O)N[C@@H]([C@@H](C)CC)C(=O)N(C)CC(=O)N(C)[C@H]3C/C=C\CCN(C3=O)[C@@H](Cc3ccc(C(F)(F)F)cc3)C(=O)N(C)CC(=O)N[C@@H](CCc3cc(F)c(C(F)(F)F)c(F)c3)C(=O)N2C1 [PP3484, (2S,8S,12R,14S,20S,23S,27S,30S,36S,38Z)-20-cyclopentyl-8-[2-[3,5-difluoro-4-(trifluoromethyl)phenyl]ethyl]-12-ethoxy-27-isobutyl-N,N,4,16,19,22,26,32,35-nonamethyl-30-[(1S)-1-methylpropyl]-3,6,9,15,18,21,25,28,31,34,42-undecaoxo-2-[[4-(trifluoromethyl)phenyl]methyl]spiro[1,4,7,10,16,19,22,26,29,32,35-undecazatricyclo[34.5.1.0^10,14]dotetracont-38-ene-17,1'-cyclobutane]-23-carboxamide]",A (a compound having 10 or more and less than 20 is denoted as A),A (a compound having 10 or more and less than 20 is denoted as A)
3.5 nM,13.1 nM,2.5 nM,–,0.8 nM,7.2 nM,13.2 nM,3.9 nM,0.076 nM,"CCO[C@@H]1C[C@H]2C(=O)NC3(CCCC3)C(=O)N(C)[C@@H](C3CCCC3)C(=O)N(C)[C@H](C(=O)N(C)C)CC(=O)N(C)[C@@H]([C@@H](C)OC)C(=O)N[C@@H]([C@@H](C)CC)C(=O)N(C)CC(=O)N(C)[C@H]3C/C=C\CCN(C3=O)[C@@H](Cc3ccc(C(F)(F)F)cc3)C(=O)N(C)CC(=O)N[C@@H](CCc3cc(F)c(C(F)(F)F)c(F)c3)C(=O)N2C1 [PP3475, (2S,8S,12R,14S,20S,23S,27S,30S,36S,38Z)-20-cyclopentyl-8-[2-[3,5-difluoro-4-(trifluoromethyl)phenyl]ethyl]-12-ethoxy-27-[(1R)-1-methoxyethyl]-N,N,4,19,22,26,32,35-octamethyl-30-[(1S)-1-methylpropyl]-3,6,9,15,18,21,25,28,31,34,42-undecaoxo-2-[[4-(trifluoromethyl)phenyl]methyl]spiro[1,4,7,10,16,19,22,26,29,32,35-undecazatricyclo[34.5.1.0^10,14]dotetracont-38-ene-17,1'-cyclopentane]-23-carboxamide]",A (a compound having 10 or more and less than 20 is denoted as A),A (a compound having 10 or more and less than 20 is denoted as A)
